How the values were obtained:
[1] = tested on: Actinoplanes ATCC 33076 Ramo16, NAD dependent reductase (native protein, no fusion tag); assay: Ramo16 activity assay (continuous spectrophotometric, decrease in NADH absorbance at 340 nm); assay type: biochemical; details: pseudo-substrate acetoacetyl-CoA varied 0 to 5 mM; 250 μM NADH fixed; 10 μM Ramo16; 50 mM HEPES, pH 7.6, 100 mM NaCl; 25° C.
Method: FIG. 8 is a kinetic profile of Ramo16 (10 μM) with varied acetoacetyl-CoA (0 to 5 mM) and fixed NADH (250 μM).
Ramo16, the NAD dependent reductase, was expressed natively in autoinduction media to prevent the formation of insoluble aggregates. Expression in a His6-tagged expression vector led to protein instability and ultimately precipitation.
Cloning and Purification of Ramo16: The ramo16 gene was obtained by PCR amplification from cosmid DNA (OO8CK) from Actinoplanes ATCC 33076 using Herculase Hot Start Polymerase with the following primers: the C-terminal his-tag were Ramo16C-F (5′-GGGAATTCCATATGCGCTTGACCGGCAAGACCCCG-3′), Ramo16C-R (5′-CCCAAGCTTGCGCGTGGTGAATCCGCCGTCGAC-3′, and the N-terminal his-tag were Ramo16N-F (5′-TATACCATGGCTCGCTTGACCGGCAAGAC-3′). and Ramo16N-R (5′-TATAGGATCCTCAGCGCGTGGTGAATCCG-3′). The amplified gene products were cloned into the Zero Blunt Cloning Vector and sequenced. […] Fractions were analyzed by SDS-PAGE and the band corresponding to Ramo16 was excised and the identity of the protein confirmed by Q-TOF. […]
Ramo 16 Activity Assay: Initial rates of Ramo16 were determined by monitoring the decrease in absorbance of NADH at 340 nm at 25° C. The 100 μL reactions were monitored in half-area clear bottom Corning plates using a 96 well plate SpectraMax Molecular Devices spectrophotometer. […]

[2] = tested on: vancomycin-resistant Enterococcus faecium (VRE); details: cited from earlier work
[3] = tested on: methicillin-resistant Staphylococcus aureus (MRSA); details: cited from earlier work

| Compound | Km [1] | kcat [1] | effectiveness against VRE [2] | effectiveness against MRSA [3] |
| --- | --- | --- | --- | --- |
| CC(=O)CC(=O)SCCNC(=O)CCNC(=O)[C@H](O)C(C)(C)COP(=O)(O)OP(=O)(O)OC[C@H]1O[C@@H](n2cnc3c(N)ncnc32)[C@H](O)[C@@H]1OP(=O)(O)O [acetoacetyl-Coenzyme A] | 2350 ± 390 µM | 15.7 ± 1.2 s⁻¹ |  |  |
| ramoplanin A2 |  |  | highly effective | highly effective |
